Source: patent US20170151219A1, “ANTIPERSPIRANT AGENT” (OSAKA UNIVERSITY, priority 2014, published 2017)

Tests used:
human = experiment: Observation of skin symptom after oral administration of mTOR inhibitor; type: in vivo; conditions: orally 10 mg per day, FIG. 3
Protocol: An influence on a skin exerted by a mTOR inhibitor was observed.
Specifically, a mTOR inhibitor (everolimus (Afinitor (Registered Trademark)) was orally administered to a human by 10 mg per day, and a symptom appeared on the skin was observed.
Specifically, (a) of FIG. 3 is a photograph showing a state of the skin before the mTOR inhibitor is administered, and (b) of FIG. 3 is a photograph showing a state of the skin after the mTOR inhibitor is administered.

[1] = system: patient of renal angiomyolipoma in consequence of tuberous sclerosis; experiment: Amount of sweating measured with local perspiration meter during and after oral mTOR inhibitor; type: in vivo, human; conditions: FIG. 4
Protocol: To a patient of renal angiomyolipoma in consequence of tuberous sclerosis, the mTOR inhibitor (everolimus (Afinitor (Registered Trademark))) was orally administered by 10 mg per day for approximately four months, and then the oral administration of the mTOR inhibitor was withdrawn.
During the period, after the oral administration of the mTOR inhibitor was started, an amount of sweating on a normal skin of the patient was measured with time and an amount of sweating on a skin of the patient on which a symptom of vitiligo appeared was measured with time.
The amount of sweating was measured with use of a local perspiration meter (quantitative axon reflex sweat amount measuring device) manufactured by Skinos Giken, and a specific measuring method was in conformity to a protocol attached to the device.

[2] = orally 10 mg per day for approximately four months

## CO[C@H]1C[C@@H]2CC[C@@H](C)[C@@](O)(O2)C(=O)C(=O)N2CCCC[C@H]2C(=O)O[C@H]([C@H](C)C[C@@H]2CC[C@@H](OCCO)[C@H](OC)C2)CC(=O)[C@H](C)/C=C(\C)[C@@H](O)[C@@H](OC)C(=O)[C@H](C)C[C@H](C)/C=C/C=C/C=C/1C [everolimus]
human
  symptom appeared on the skin: dry skin
[1]; normal skin and vitiligo skin, after withdrawal of oral administration
  amounts of sweating after withdrawal of administration: restored
[1]; [2]
  amount of sweating on the normal skin: reduced
  amount of sweating on the skin showing the symptom of vitiligo: reduced
